Literature values in US11878005B2, “Formulations of deferasirox and methods of making the same” (AustinPx, LLC, priority 2015, dated 2024).

Legend:
[1] = not given; remark: listed apart in the source

Question: For O=C(O)c1ccc(-n2nc(-c3ccccc3O)nc2-c2ccccc2O)cc1 [DFX, Deferasirox], which reported water solubility (25° C.) is on record?
Answer: The reported water solubility was 400 µg/mL.

Question: And the pH dependent solubility (acidic media)?
Answer: The pH dependent solubility was “insoluble in acidic media”.

Question: And the “food effect on exposure” value ([1]; iron overload patients, administered with a high fat meal)?
Answer: The value was “two-fold higher exposure”.

Question: And the “total DFX dose recovered in the feces as unchanged drug” value ([1]; steady state (7-day dosing))?
Answer: The value was 84%.
